A word on the IC50: it is the concentration at which inhibition is half-maximal.

Data on six molecules can be found in patent US20140121126A1, “METHODS OF DETECTING AXL AND GAS6 IN CANCER PATIENTS” (Memorial Sloan-Kettering Cancer Center, priority 2012, published 2014).

In one test the test system is HCC827 ER1-ER5 sublines. The test is described as follows: Cell viability assay (CellTiterGLO), erlotinib resistant HCC827 ER1-ER5 sublines. The following applies: for effect of single-agent treatment on cell viability: 1 μM alone, HCC827 ER cells; for effect on sensitivity to concurrent erlotinib treatment: AXL inhibitor 1 μM plus erlotinib, each ER subline.
Another test has as its system ER4 cells. The experiment in a line: Apoptosis by PARP cleavage and BIM induction in ER4 cells. The format is cell-based, human. The following applies: 24 hour exposure; AD57 1 micromolar, AD80 1 micromolar. As for the experimental part:
FIG. 22. Induction of apoptosis by combined EGFR and AXL inhibition. […] 24-hour drug exposure. Apoptosis measured by induction of PARP cleavage and BIM induction.

Test [1] deals with parental HCC827 cells. The experiment in a line: Western blot of signaling biomarkers, parental HCC827 cells. The format is cell-based, human. To be noted: erlotinib 100 nM. As for the experimental part:
(§1) Western blot analysis. Cells were serum starved overnight and whole cell lysates were prepared using 10% TCA lysis or RIPA buffer and clarified by centrifugation. Proteins were separated by 10% SDS-PAGE gel and transferred onto PVDF membranes (Invitrogen) for Western blot analysis. After primary antibody incubation overnight, washing and incubation with secondary antibodies, blots were developed with a chemiluminescence system (Pierce).
(In western blotting, separated proteins are transferred to a membrane and probed.)

A further test deals with HCC827 ER1 tumors. The test is described as follows: HCC827 ER1 xenograft tumors treated with erlotinib. The format is in vivo, mice. The following applies: ER1 tumors transduced with non-target shRNA, 12.5 mg/kg/day. As to the method: (§2) Tumorigenesis assays. Human lung cancer cells (as indicated) were injected subcutaneously into the flanks of CB17 SCID mice (Taconic). […] Tumor measurements were made on days indicated and expressed as described in the descriptions of the drawings. All animal experiments were performed in compliance with the guidelines of the Research Animal Resource Center of the Memorial Sloan-Kettering Cancer Center.

The subject of the next test is H3255 ER sublines. The experiment in a line: Cell viability, erlotinib-resistant H3255 ER sublines. The following applies: for effect on sensitivity to concurrent erlotinib treatment: H3255 ER sublines. The format is cell-based, human. From the text:
Establishment of erlotinib-resistant subclones.
(§3) Cell growth and viability assays.

For the next test, the system named is HCC827 ER1 and ER2 cells. The experiment in a line: Western blot of signaling biomarkers, HCC827 ER1 and ER2 cells. To be noted: for erlotinib effects (decreased pEGFR, pERK, pAKT, pRelA, increased cleaved Parp) with concurrent AXL inhibitor: concurrent treatment with erlotinib, 48 h. The format is cell-based, human. As to the method:
as §1

The next test deals with H3255 cells. The test is described as follows: Cell viability, parental H3255 cells. The format is cell-based. The following applies: Homo sapiens, NCI-H3255, read-out: erlotinib IC50, EGFR L858R.
For another test, the system named is HCC827 xenograft tumors. As for the experimental part:
as §2

For a further test, the system named is HCC827 tumors. The test is described as follows: Western blot of signaling biomarkers in HCC827 xenograft tumors. Type of test: in vivo, mice. As to the method: as §1, §2
The test system of another test is PC9 cells. The experiment in a line: Cell viability (CellTiterGLO), PC9 cells. The format is cell-based. To be noted: Homo sapiens, PC-9, read-out: erlotinib IC50, EGFR exon 19-deletion mutant.
Description: (§4) To address these questions, we generated cDNA constructs that encode either wild type (WT) AXL or a kinase-impaired mutant of AXL in which a key conserved lysine within the kinase domain was changed to arginine (K567R).
as §3
For orientation: In ATP-based viability assays light output follows the ATP content of the culture.

The test system of a further test is HCC827ER cells. The experiment in a line: Combination index (CI) analysis with erlotinib. Type of test: cell-based, human. To be noted: ER1 and ER4 sublines; 1:1 ratio; CI < 1 = synergism. From the text: Combination index (CI) analysis. […] The fraction affected (Fa) (i.e., Fa of 0.25 is equivalent to 75% viable cells) and CI values processed using CalcuSyn software (Biosoft, Cambridge, UK). CI values of less than 1, 1, and greater than 1 were taken as synergism, additive effect, and antagonism, respectively.

The next test has as its system HCC827 cells. The experiment in a line: Cell viability assay (CellTiterGLO), parental HCC827 cells. To be noted: 1 μM alone.
In test [2] the test system is HCC827 cells expressing AXL constructs. The test is described as follows: Viability of HCC827 cells expressing AXL cDNA constructs. The format is cell-based, human.
Description: as §4, §3
(§5) AXL cDNA and overexpression studies. The AXL gene with an HA tag at the C-terminus was amplified by overlapping PCR using cDNA generated from ER3 cells and cloned into pcDNA3.1 (+) vector. Amino acid changes (K567R or L620M) were introduced using the Strategene QuickChange Mutagenesis Kit, according to the manufacturer's protocol. The accuracy of the constructs was confirmed by DNA sequencing. Cells were transfected with the AXL-expressing vectors or empty vector as a control by using FuGENE HD reagent according to the manufacturer's protocol (Roche Applied Sciences, Indianapolis, Ind., USA). Stable HCC827 subclones resistant to the selection antibiotic, 500 μg/ml G418 were generated 24 hours post-transfection. Empty-vector expressing HCC827 cells were generated as a control. AXL protein expression was detected by using anti-HA probe (Santa Cruz Biotechnology).

In another test the test system is AXL. The test is described as follows: pAXL western blot in HCC827 cells expressing AXL L620M. The format is cell-based, human. As for the experimental part:
Cancer research 69, 8009-8016 (2009); Yun, C. H. et al. PNAS 105, 2070-2075 (2008)] (FIG. 18).
as §1, §5

Another test has as its system HCC827 ER3 cells. The experiment in a line: Migration and adhesion, HCC827 ER3 cells. The format is cell-based, human. To be noted: XL-880 1 μM (FIG. 4c-d). As for the experimental part: (§6) [Vuoriluoto, K. et al. Oncogene 30, 1436-1448 (2011)] […] Together, the data support a possible role for an EMT that is marked by vimentin overexpression in the development of acquired EGFR TKI resistance that is driven by AXL in this model of human EGFR mutant lung cancer.
(§7) Migration and adhesion studies. 180,000 cells were plated onto 3.5 cm cell culture dishes. At 30 minutes, the dishes were washed and cells were fixed and stained for counting. Average cell numbers of 5 random 100× fields under light microscope are presented with ±SEM. Migration: 10,000 cells in 200 μl medium without FBS were placed in the upper chamber of transwells (6.5 mm diameter, 8 μm pore size polycarbonate membrane, Corning), and the lower chamber filled with 1 ml of medium with 10% FBS supplemented with or without the indicated drug treatments. After incubation for 16 hours, non-migrating cells were removed with cotton swabs, and the cells that migrated into the lower surface of the filters were stained with crystal violet. Cells were counted under a microscope, and triplicate results are expressed as means±SEM.

The test system of test [3] is parental HCC827 cells. The experiment in a line: Migration and adhesion, parental HCC827 cells. The format is cell-based, human. The following applies: XL-880 1 μM (FIG. 4c-d). As to the method:
as §6, §7

Where [4] appears, read: ER4 cells, 0.1, 1, 10 micromolar in combination with erlotinib.

Bounds are passed on as bounds.

Description for H3255 cells: (§8) Cell growth and viability assays. Cells were seeded at a density of 3000 cells/well in 96-well plates in RPMI 1640 containing 10% FBS overnight, then treated with respective agents for an additional 3 days. Viable cell numbers were determined using CellTiterGLO or MTS assay kit, as indicated in the descriptions of the drawings, according to the manufacturer's protocols (Promega, Madison, Wis., USA). Each assay consisted of 3 replicate wells and was repeated at least twice. Data were expressed as the percentage survival of control calculated from the absorbance, corrected for background.
Description for HCC827 ER1-ER5 sublines: as §8

For `CC(C)n1nc(-c2ccc(NC(=O)Nc3cccc(C(F)(F)F)c3)cc2)c2c(N)ncnc21` [AD57], the “effect on sensitivity to erlotinib” value in the test with HCC827 ER1-ER5 sublines (setting [4]) is listed as “confer dose-dependent sensitivity to erlotinib”. The “apoptosis (PARP cleavage and BIM induction) combined with erlotinib” value in the test on ER4 cells is listed as “enhances apoptosis”.
In the same order, the values of `CC(C)n1nc(-c2ccc(NC(=O)Nc3cc(C(F)(F)F)ccc3F)cc2)c2c(N)ncnc21` [AD80] are “confer dose-dependent sensitivity to erlotinib” and “enhances apoptosis”.
`C[C@@H](Oc1cc(-c2cnn(C3CCNCC3)c2)cnc1N)c1c(Cl)ccc(F)c1Cl` [Crizotinib, crizotinib]: the “effect on sensitivity to erlotinib” value with HCC827 ER1-ER5 sublines (ER cells, at 10 μM, in combination with erlotinib) is “confers dose-dependent sensitivity to erlotinib”.
`C#Cc1cccc(Nc2ncnc3cc(OCCOC)c(OCCOC)cc23)c1` [Erlotinib, erlotinib]: the “effect on pERK, pAKT, pRelA and Parp cleavage” value in the test with parental HCC827 cells [1] was “decreased pERK, pAKT and pRelA (a marker of NF-kB signaling) and increased Parp cleavage”. In addition, the “effect on pEGFR” value in the test with parental HCC827 cells [1] (parental HCC827) is “decreased pEGFR”; in the test on HCC827 ER1 and ER2 cells (erlotinib 100 nM, ER1 and ER2 sublines), “decreased pEGFR”. Moreover, the “tumor response to erlotinib treatment” value with HCC827 ER1 tumors was “erlotinib-resistant”; with HCC827 xenograft tumors (parental HCC827 tumors, 12.5 mg/kg/day) it was “sensitive”. The IC50 was > 1000 nM in the test with H3255 ER sublines (Homo sapiens, NCI-H3255, read-out: erlotinib IC50, 2 isogenic erlotinib-resistant sublines of H3255 (EGFR L858R)); ~15 nM with H3255 cells; ~25 nM with PC9 cells. Further, the “Maximum Volume Reduction (% change from baseline)” value in the test on HCC827 xenograft tumors (erlotinib 25 mg/kg, 10 tumors per group, average) was −69 % change from baseline. Also, the “Time to Maximum Volume Reduction (weeks)” value with HCC827 xenograft tumors (erlotinib 25 mg/kg, median ± SEM) stood at 5 ± 0.2 weeks. In addition, the “effect on pEGFR, pErbB3 and pMET in tumors” value in the test with HCC827 tumors (sensitive tumors at 48 h and resistant tumors at each dose, vs vehicle) was “decreased levels of pEGFR, pErbB3, and pMET”. In addition, the “effect on pAKT, pERK, pRelA and Parp cleavage in tumors” value with HCC827 tumors (sensitive tumors, 48 h treatment, 12.5 mg/kg/day) was “decreased pAKT, pERK, and pRelA and increased Parp cleavage”.
Consider `S=C(NCc1ccc2c(c1)OCO2)N1CCN(c2ncnc3c2oc2ccccc23)CC1` [MP-470, amuvatinib], for which the “synergy with concurrent erlotinib treatment (combination index)” value in the test with HCC827ER cells was “synergistic”. The “effect on sensitivity to concurrent erlotinib treatment” value with H3255 ER sublines and in the test on HCC827 ER1-ER5 sublines was “restored sensitivity to concurrent erlotinib treatment” each time. The “effect of single-agent treatment on cell viability” value in the test with HCC827 cells and in the test on HCC827 ER1-ER5 sublines was “did not significantly affect the viability” in each case. In addition, in the test with HCC827 ER1 and ER2 cells, the “erlotinib effects (decreased pEGFR, pERK, pAKT, pRelA, increased cleaved Parp) with concurrent AXL inhibitor” value is “observed only upon concurrent treatment”.
As for `COc1cc2c(Oc3ccc(NC(=O)C4(C(=O)Nc5ccc(F)cc5)CC4)cc3F)ccnc2cc1OCCCN1CCOCC1` [XL-880, foretinib], in test [2] (XL-880 1 μM, HCC827 cells expressing AXL L620M), the “ability to restore erlotinib sensitivity” value is given as “abrogated the ability”. Also, in [2] (XL-880 1 μM, HCC827 cells overexpressing WT AXL), the “effect on erlotinib resistance induced by overexpression of WT AXL” value was “reversed”. For the same molecule, the “change of IC50 for XL-880” value in test [2] (expression of AXL L620M gatekeeper mutant) is reported as “significantly increased”. In the test on AXL, the “ability to decrease pAXL” value was “blocked the ability”. Besides, the “effect on sensitivity to concurrent erlotinib treatment” value in the test with H3255 ER sublines and in the test with HCC827 ER1-ER5 sublines was “restored sensitivity to concurrent erlotinib treatment” throughout. Further, the “effect of single-agent treatment on cell viability” value in the test with HCC827 cells and with HCC827 ER1-ER5 sublines was “did not significantly affect the viability” each time. Moreover, the “effect on migration and adhesion” value is “inhibited migration and adhesion” in the test with HCC827 ER3 cells; “had no effect” in the test with parental HCC827 cells [3]. The “erlotinib effects (decreased pEGFR, pERK, pAKT, pRelA, increased cleaved Parp) with concurrent AXL inhibitor” value in the test with HCC827 ER1 and ER2 cells is recorded as “observed only upon concurrent treatment”.
